Results on five molecules are retold here after ChEMBL document CHEMBL2074544 (J Lipid Res, 2000).

What is called Km is the concentration of substrate that gives half-maximal velocity.

Data set [1] deals with T1, Oct1 (Solute carrier family 22 member 1) (Mus musculus, UniProt O08966).
T1 sequence (O08966 whole entry): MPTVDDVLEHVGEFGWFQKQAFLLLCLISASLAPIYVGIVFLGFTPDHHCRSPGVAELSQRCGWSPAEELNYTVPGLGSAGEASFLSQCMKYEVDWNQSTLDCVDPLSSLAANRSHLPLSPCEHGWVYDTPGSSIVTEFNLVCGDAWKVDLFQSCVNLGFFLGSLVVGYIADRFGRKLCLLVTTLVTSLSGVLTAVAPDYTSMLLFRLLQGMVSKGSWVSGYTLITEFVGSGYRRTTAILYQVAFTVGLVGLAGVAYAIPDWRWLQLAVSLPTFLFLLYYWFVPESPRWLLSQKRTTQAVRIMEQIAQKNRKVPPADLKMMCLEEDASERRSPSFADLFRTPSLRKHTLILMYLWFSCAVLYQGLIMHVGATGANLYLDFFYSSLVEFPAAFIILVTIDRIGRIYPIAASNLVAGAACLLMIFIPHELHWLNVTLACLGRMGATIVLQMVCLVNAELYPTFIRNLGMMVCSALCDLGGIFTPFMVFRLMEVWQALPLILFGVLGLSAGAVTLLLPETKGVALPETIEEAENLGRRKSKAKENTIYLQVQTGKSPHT
Description: TP_TRANSPORTER: inhibition of TEA uptake (TEA: 50 uM, NMN: 10000 uM) in Oct1-expressing BALB/3T3 cells. On the set-up: scale not given: the % may be the effect or the level left. Type of data set: functional, cell-based. The following applies: BALB/3T3 cells expressing Oct1, probe TEA (50 uM), read-out: Activity.

Data set [2] deals with T2, Solute carrier family 22 member 1 (Mus musculus, UniProt O08966).
T2 sequence (O08966 whole entry): T1 sequence (O08966 whole entry)
Kind of data set: TP_TRANSPORTER: inhibition of TEA uptake (TEA: 50 uM, TMA: 10000 uM) in Oct1-expressing BALB/3T3 cells. On the set-up: scale not given: the % may be the effect or the level left. Type of data set: functional, cell-based.

Data set [3] deals with T1, Oct1 (Solute carrier family 22 member 1). Kind of data set: TP_TRANSPORTER: inhibition of TEA uptake (TEA: 50 uM, Quinidine: 1000 uM) in Oct1-expressing BALB/3T3 cells. Type of data set: functional, cell-based. Also noted: scale not given: the % may be the effect or the level left. The following applies: BALB/3T3 cells expressing Oct1, probe TEA (50 uM), read-out: Activity.

For data set [4] the target is unchanged. Description: in vitro. To be noted: BALB/3T3 cells expressing Oct1, probe TEA (50 uM).
Substrate in data set [5]: CCCC[N+](CCCC)(CCCC)CCCC
Description: cells, lysate or membranes named.

Substrate in data set [6]: C[N+](C)(C)CCO
Kind of data set: cells, lysate or membranes named.

As for `CNC(=O)c1cccnc1` [NICOTINYL METHYLAMIDE], the activity at 10000 uM in data set [1] turned out to be 0%.

In turn, `C[N+](C)(C)C.[Cl-]` [TETRAMETHYLAMMONIUM] gave an Activity in data set [2] of 0%.

With `C=C[C@H]1C[N@@]2CC[C@H]1C[C@@H]2[C@@H](O)c1ccnc2ccc(OC)cc12` [QUINIDINE], the activity at 1000 µM in data set [3] was found to be 0%.

`Cc1ncc(C[n+]2csc(CCO)c2C)c(N)n1` [THIAMINE ION] came in with an activity at 10000 uM in data set [4] of 0%.

B1: Solute carrier family 22 member 1 (Mus musculus) (protein)
chain: T1 sequence (O08966 whole entry)
Take B1: the figures for the Michaelis-Menten constant (Km) in data set [5] and in data set [6] were 43 µM and 42 µM, respectively.
